Measured values reported in US4772691A, “Chemically cleavable nucleotides” (The Medical College of Wisconsin, Inc., priority 1985, dated 1988).

What was measured:
[1] = system: avidin; details: compared with avidin-biotin; cited from earlier work
[2] = target: E. coli DNA polymerase I (Escherichia coli, UniProt P00582); test: nick-translation reaction, incorporation of [32P]dCTP into 145-bp DNA; assay type: biochemical; details: for rate of nick-translation reaction relative to TTP: 20 μM nucleotide, relative to equal concentration of TTP
Description: Nick-Translation Reactions. Nucleosome length DNA fragments [145 base pairs (bp)]were purified from monomer nucleosomes prepared by micrococcal nuclease digestion of chicken erythrocyte nuclei followed by fractionation on an agarose A-5m column (2). Four microgram aliquots of 145-bp DNA fragments in 0.1 ml of 50 mM Tris-HCl, pH 7.5/5 mM MgCl2 /50 μg of bovine serum albumin per ml were nicktranslated (3) in the presence of 20 μM dATP and dGTP, 20 μM [^32 P]dCTP (2-5 μCi/nmol; 1 Ci =37 GBq), and either dTTP, Bio-4-dUTP, or Bio-SS-dUTP as indicated. 2-Mercaptoethanol was eliminated from the nick-translation buffer to preserve the Bio-SS-dUTP. DNase I (0.01 ng per 0.1 ml of reaction mixture) was added to the reaction, which was then incubated for 5 min at 15° C. prior to the addition of E. coli DNA polymerase I (4 units per 0.1 ml of reaction mixture).
Bio-SS-dUTP Is a Substrate for E. coli DNA Polymerase. To determine whether Bio-SS-dUTP could serve as a substrate for E. coli DNA polymerase I, its incorporation into DNA in a nick-translation reaction was measured. The incorporation of [^32 P ]dCTP into purified nucleosome-length DNA fragments (145 bp) in the presence of 20 μM dATP, dGTP, dCTP, and either the normal nucleotide, TTP, or one of three biotinylated nucleotide analogs was measured. Bio-SS-dUTP was capable of supporting the nick-translation reaction at 35%-40% the rate observed with an equal concentration of TTP. […] If no TTP is present with the biotinylated nucleotides in the nick-translation reaction, the newly synthesized DNA is very heavily biotinylated. To reduce this level of modification, the nick-translation reactions can be performed in the presence of μM/10TTP/10 μM Bio-SS-dUTP.

[3] = HPLC of Bio-SS-dUTP in presence of 2-mercaptoethanol (disulfide cleavage); assay type: physicochemical; details: 5 mM 2-mercaptoethanol immediately before HPLC
Description: It was not necessary to further purify the AA-dUTP by HPLC at this stage in the synthesis. Instead, 2.0 μmol of AA-dUTP in 200 μl of 0.1 M sodium borate (pH 8.5) was added directly to 2.0 μmol of sulfo-NHS-SS-biotin. The reaction was allowed to proceed at room temperature for 1 to 2 hr. The resulting Bio-SS-dUTP was purified by ion-pair reversed-phase HPLC using a Bio-Sil ODS-5S column (250×4 mm; Bio-Rad). Aliquots of the reaction (100 μl) were adjusted to 50 mM Et3 NHCO3 (pH 7.5) and 10% acetonitrile, diluted to 500 μl with the same buffer, and applied to the column at a flow rate of 0.5 ml/min (1600 psi). Bio-SS-dUTP was eluted isocratically with 50 mM Et3 NHCO3 (pH 7.5) and 10% acetonitrile. Column fractions containing Bio-SS-dUTP were pooled, rotary evaporated, resuspended in 10 mM Tris HCl (pH 7.5); and stored at -80° C. From 2.0 μmol of AA-dUTP, 1.0-1.6 μmol of Bio-SS-dUTP can be obtained by this procedure.
An identical aliquot of the Bio-SS-dUTP reaction was supplemented with 2-mercaptoethanol to a final concentration of 5 mM immediately prior to its application and chromatography on HPLC. […] Instead, there was a corresponding increase in the material eluting from the column with the solvent breakthrough (3.3 min). […]

Sequence of E. coli DNA polymerase I (P00582 whole entry, the tested form may be a part): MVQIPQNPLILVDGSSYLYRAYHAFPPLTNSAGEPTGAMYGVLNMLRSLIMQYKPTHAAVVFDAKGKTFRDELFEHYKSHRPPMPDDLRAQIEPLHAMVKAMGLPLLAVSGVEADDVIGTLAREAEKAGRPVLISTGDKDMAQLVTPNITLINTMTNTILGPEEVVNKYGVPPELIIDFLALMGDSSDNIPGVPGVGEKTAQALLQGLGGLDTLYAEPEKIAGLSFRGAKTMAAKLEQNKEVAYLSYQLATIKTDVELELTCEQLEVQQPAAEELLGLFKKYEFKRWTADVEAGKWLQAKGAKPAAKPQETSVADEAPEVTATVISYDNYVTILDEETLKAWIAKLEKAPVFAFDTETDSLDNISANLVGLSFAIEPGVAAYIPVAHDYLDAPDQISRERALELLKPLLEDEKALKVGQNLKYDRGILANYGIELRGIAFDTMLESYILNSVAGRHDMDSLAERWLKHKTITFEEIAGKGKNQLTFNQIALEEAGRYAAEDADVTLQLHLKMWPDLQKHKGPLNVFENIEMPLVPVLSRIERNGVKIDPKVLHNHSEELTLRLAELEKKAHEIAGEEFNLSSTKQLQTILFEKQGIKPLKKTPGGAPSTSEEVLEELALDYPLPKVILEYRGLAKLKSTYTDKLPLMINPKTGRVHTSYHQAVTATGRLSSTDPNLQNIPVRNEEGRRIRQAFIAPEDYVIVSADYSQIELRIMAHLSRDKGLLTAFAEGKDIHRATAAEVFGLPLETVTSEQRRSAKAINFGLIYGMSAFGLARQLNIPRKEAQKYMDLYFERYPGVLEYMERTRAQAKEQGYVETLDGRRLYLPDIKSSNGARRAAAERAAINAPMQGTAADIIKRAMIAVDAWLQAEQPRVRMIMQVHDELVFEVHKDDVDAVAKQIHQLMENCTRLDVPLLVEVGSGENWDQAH

Compound	strength of avidin-iminobiotin interaction [1]	rate of nick-translation reaction relative to TTP [2]	rate of nick-translation reaction in mixture with TTP ([2]; 10 μM TTP/10 μM Bio-SS-dUTP versus 20 μM TTP alone)	residues incorporated per nucleosome-length fragment ([2]; nick-translated with equal concentrations of TTP and Bio-SS-dUTP)	substrate for E. coli DNA polymerase ([2]; nick-translation)	intact compound after 2-mercaptoethanol (HPLC) [3]
N=C1N[C@H]2[C@H](CS[C@H]2CCCCC(=O)O)N1 [2-iminobiotin]	not nearly as strong as that of avidin-biotin	–	–	–	–	–
O=C(CCCC[C@@H]1SC[C@@H]2NC(=O)N[C@@H]21)NCC=Cc1cn([C@H]2C[C@H](O)[C@@H](COP(=O)(O)OP(=O)(O)OP(=O)(O)O)O2)c(=O)[nH]c1=O [Bio-4-dUTP, reference compound]	–	60%	–	–	–	–
O=C(CCSSCCNC(=O)CCCC[C@@H]1SC[C@@H]2NC(=O)N[C@@H]21)NCC=Cc1cn([C@H]2C[C@H](O)[C@@H](COP(=O)(O)OP(=O)(O)OP(=O)(O)O)O2)c(=O)[nH]c1=O [Bio-SS-dUTP]	–	35%-40%	only slightly slower	2-5 residues per nucleosome-length fragment	good substrate	no UV-absorbing material eluted from the column with the retention time expected for intact Bio-SS-dUTP
